In patent US20220161456A1, “S[…] PRESERVATIVE COMPOSITION COMPRISING POLYMERIC BETAINE AND CARBAMATE” (Troy Corporation, priority 2019, published 2022):

Legend:
[1] = test system: Aureobasidium pullulans (ATCC #9348); test: EUCAST 96-well plate fungal growth inhibition (MIC); assay type: cell-based; design: key to growth of Aureobasidium pullulans in 96-well plates: (+) in each block indicates growth; (−) indicates no growth, i.e., the inhibitor was effective; details: for MIC: Aureobasidium pullulans ATCC 9348, 3 days at 35° C.
Experimental: (§1) (A) 0.17 g of 60% DPAB aqueous solution (ProTek® PBT or Polymeric Betaine EP or Polymeric Betaine Technical Grade Active Ingredient Wood Preservative, Troy Chemical Corporation, Newark, N.J.) was diluted in 9.83 g ethanol by stirring to form a concentrate containing 1% DPAB.
(§2) (B) 0.25 g of 40% IPBC solvent solution (Polyphase® AF-1, Troy Chemical Corporation, Newark, N.J.) was diluted in 9.75 g ethanol by stirring to form a concentrate containing 1% IPBC.
(§3) (C) 21.04 g of 60% DPAB aqueous solution (ProTek® PBT or Polymeric Betaine EP or Polymeric Betaine Technical Grade Active Ingredient Wood Preservative, Troy Chemical Corporation, Newark, N.J.), 6.25 g of 40% IPBC solvent solution (Polyphase AF-1, Troy Chemical Corporation, Newark, N.J.) and 22.74 g of ethanol were mixed and stirred. The resulting concentrate contained 25% polymeric betaine and 5% IPBC. The weight ratio of polymeric betaine to IPBC was 5:1. 0.33 g of this IPBC/polymeric betaine concentrate was diluted in 9.67 g of ethanol to form a use-dilution containing about 0.83% DPAB and 0.17% IPBC.
(§4) Solutions prepared as described above were tested in 96-well plates for their ability to inhibit fungal growth. The solutions were tested according to the EUCAST methodology as described in Rodriguez-Tudela et al. 2006 “Antifungal susceptibility testing in Aspergillus spp. according to EUCAST methodology,” the contents of which are incorporated by reference herein. The solutions were checked for inhibition against fungal organisms Aspergillus niger (ATCC #6275), Aureobasidium pullulans (ATCC #9348), Penicillium funiculosum (ATCC #11797) and Trichoderma pseudokoningii (ATCC #26801). This method is described below:
(§5) (1) Prepared preservative test wells by adding 2 microliters of each 1% preservative solution formulation to 198 microliters of 2xRPMI-MOPS-2% Glucose in each column “1” in duplicate.
(§6) (2) Added 100 microliters of 2xRPMI-MOPS-2% Glucose to the remaining columns.
(§7) (3) Performed 2-fold dilutions down the columns to column “12”.
(§8) (4) Prepared suspension of microorganisms from a 3-5 day old PDA slants by flooding slant with 1 mL deionized water and 0.1% Tween-20.
(§9) (5) Suspension strength was determined via hemocytometer then adjusted to 1×10^6 spores/mL with sterile deionized water.
(§10) (6) Added 100 microliters of the microorganism suspension to all wells except for sterility (−) controls containing test media. The water used to prepare the fungal suspensions was added to sterility (−) control wells.
(§11) (7) The inoculated 96-well plates were incubated for 3 days at 35° C.
(§12) (8) After incubation, fungal growth was evaluated by visual growth in test wells. Minimum inhibitory concentration (MIC) is recorded in ppm and defined as the lowest concentration of fungicide that produces no visual changes in turbidity in the test wells. (+) in each block indicates growth and (−) indicates no growth, i.e., the inhibitor was effective.
(§13) (9) The experiment is only considered valid if growth is observed in the positive (+) control wells and no growth is observed in the negative control wells.
(§14) In order to show more directly the possible synergy in the invention, the results are presented by applying the Synergy Index (S.I.). Minimal inhibitory concentration of the composition of this invention (mixture of DPAB and IPBC) are analyzed using the following equation:
(§15) MCA=Concentration of compound A in parts per million, acting alone, which prevents fungal growth at the reference point
(§16) MCA′=Concentration of compound A in parts per million, in the mixture, which prevents fungal growth at the reference point
(§17) MCB=Concentration of compound B in parts per million, acting alone, which prevents fungal growth at the reference point
(§18) MCB′=Concentration of compound B in parts per million, in the mixture, which prevents fungal growth at the reference point
(§19) When SI is greater than 2, antagonism is indicated. […] When SI is between 0.5 and 2, the action of biocides is additive.

[2] = test system: Trichoderma pseudokoningii (ATCC #26801); test: as above; assay type: cell-based; design: key to growth of Trichoderma pseudokoningii in 96-well plates: (+) in each block indicates growth; (−) indicates no growth, i.e., the inhibitor was effective; details: for MIC: Trichoderma pseudokoningii ATCC 26801, 3 days at 35° C.
Experimental: as §1, §2, §3, §4, §5, §6, §7, §8, §9, §10, §11, §12, §13, §14, §15, §16, §17, §18, §19

Question: With `CCCCNC(=O)OCC#CI` [IPBC, 3-iodo-2-propynyl butyl carbamate] as the compound, how does the MIC [1] read?
Answer: 25.00 ppm

Question: And the “growth of Aureobasidium pullulans in 96-well plates” value (“growth of Aureobasidium pullulans” below) ([1]; well 1, 50.00 ppm active)?
Answer: −

Question: And the “growth of Aureobasidium pullulans” value ([1]; well 2, 25.00 ppm active)?
Answer: −

Question: What about the “growth of Aureobasidium pullulans” value ([1]; well 3, 12.50 ppm active) of the same compound?
Answer: +

Question: What about the “growth of Aureobasidium pullulans” value ([1]; well 4, 6.25 ppm active) of the same compound?
Answer: +

Question: And the “growth of Aureobasidium pullulans” value ([1]; well 5, 3.13 ppm active)?
Answer: +

Question: And the “growth of Aureobasidium pullulans” value ([1]; well 6, 1.56 ppm active)?
Answer: +

Question: What about the “growth of Aureobasidium pullulans” value ([1]; well 7, 0.78 ppm active) of the same compound?
Answer: +

Question: What about the “growth of Aureobasidium pullulans” value ([1]; well 8, 0.39 ppm active) of the same compound?
Answer: +

Question: And the “growth of Aureobasidium pullulans” value ([1]; well 9, 0.20 ppm active)?
Answer: +

Question: What about the “growth of Aureobasidium pullulans” value ([1]; well 10, 0.10 ppm active) of the same compound?
Answer: +

Question: And the “growth of Aureobasidium pullulans” value ([1]; well 11, 0.05 ppm active)?
Answer: +

Question: And the “growth of Aureobasidium pullulans” value ([1]; well 12, 0.02 ppm active)?
Answer: +

Question: What about the MIC [2] of the same compound?
Answer: 6.25 ppm

Question: And the “growth of Trichoderma pseudokoningii in 96-well plates” value (from here on “growth of Trichoderma pseudokoningii”) ([2]; well 1, 50.00 ppm active)?
Answer: −

Question: And the “growth of Trichoderma pseudokoningii” value ([2]; well 2, 25.00 ppm active)?
Answer: −

Question: What about the “growth of Trichoderma pseudokoningii” value ([2]; well 3, 12.50 ppm active) of the same compound?
Answer: −

Question: What about the “growth of Trichoderma pseudokoningii” value ([2]; well 4, 6.25 ppm active) of the same compound?
Answer: −

Question: What about the “growth of Trichoderma pseudokoningii” value ([2]; well 5, 3.13 ppm active) of the same compound?
Answer: +

Question: And the “growth of Trichoderma pseudokoningii” value ([2]; well 6, 1.56 ppm active)?
Answer: +

Question: And the “growth of Trichoderma pseudokoningii” value ([2]; well 7, 0.78 ppm active)?
Answer: +

Question: What about the “growth of Trichoderma pseudokoningii” value ([2]; well 8, 0.39 ppm active) of the same compound?
Answer: +

Question: And the “growth of Trichoderma pseudokoningii” value ([2]; well 9, 0.20 ppm active)?
Answer: +

Question: And the “growth of Trichoderma pseudokoningii” value ([2]; well 10, 0.10 ppm active)?
Answer: +

Question: What about the “growth of Trichoderma pseudokoningii” value ([2]; well 11, 0.05 ppm active) of the same compound?
Answer: +

Question: What about the “growth of Trichoderma pseudokoningii” value ([2]; well 12, 0.02 ppm active) of the same compound?
Answer: +

Question: Which MIC [1] does the source give for “didecyl bis(hydroxyethyl) ammonium borate [DPAB]” here?
Answer: 12.5 ppm

Question: What about the “growth of Aureobasidium pullulans” value ([1]; well 1, 50.00 ppm active) of the same compound?
Answer: −

Question: What about the “growth of Aureobasidium pullulans” value ([1]; well 2, 25.00 ppm active) of the same compound?
Answer: −

Question: And the “growth of Aureobasidium pullulans” value ([1]; well 3, 12.50 ppm active)?
Answer: −

Question: What about the “growth of Aureobasidium pullulans” value ([1]; well 4, 6.25 ppm active) of the same compound?
Answer: +

Question: What about the “growth of Aureobasidium pullulans” value ([1]; well 5, 3.13 ppm active) of the same compound?
Answer: +

Question: And the “growth of Aureobasidium pullulans” value ([1]; well 6, 1.56 ppm active)?
Answer: +

Question: What about the “growth of Aureobasidium pullulans” value ([1]; well 7, 0.78 ppm active) of the same compound?
Answer: +

Question: And the “growth of Aureobasidium pullulans” value ([1]; well 8, 0.39 ppm active)?
Answer: +

Question: And the “growth of Aureobasidium pullulans” value ([1]; well 9, 0.20 ppm active)?
Answer: +

Question: What about the “growth of Aureobasidium pullulans” value ([1]; well 10, 0.10 ppm active) of the same compound?
Answer: +

Question: And the “growth of Aureobasidium pullulans” value ([1]; well 11, 0.05 ppm active)?
Answer: +

Question: What about the “growth of Aureobasidium pullulans” value ([1]; well 12, 0.02 ppm active) of the same compound?
Answer: +

Question: What about the MIC [2] of the same compound?
Answer: 25.00 ppm

Question: What about the “growth of Trichoderma pseudokoningii” value ([2]; well 1, 50.00 ppm active) of the same compound?
Answer: −

Question: And the “growth of Trichoderma pseudokoningii” value ([2]; well 2, 25.00 ppm active)?
Answer: −

Question: What about the “growth of Trichoderma pseudokoningii” value ([2]; well 3, 12.50 ppm active) of the same compound?
Answer: +

Question: And the “growth of Trichoderma pseudokoningii” value ([2]; well 4, 6.25 ppm active)?
Answer: +

Question: And the “growth of Trichoderma pseudokoningii” value ([2]; well 5, 3.13 ppm active)?
Answer: +

Question: And the “growth of Trichoderma pseudokoningii” value ([2]; well 6, 1.56 ppm active)?
Answer: +

Question: What about the “growth of Trichoderma pseudokoningii” value ([2]; well 7, 0.78 ppm active) of the same compound?
Answer: +

Question: And the “growth of Trichoderma pseudokoningii” value ([2]; well 8, 0.39 ppm active)?
Answer: +

Question: And the “growth of Trichoderma pseudokoningii” value ([2]; well 9, 0.20 ppm active)?
Answer: +

Question: And the “growth of Trichoderma pseudokoningii” value ([2]; well 10, 0.10 ppm active)?
Answer: +

Question: What about the “growth of Trichoderma pseudokoningii” value ([2]; well 11, 0.05 ppm active) of the same compound?
Answer: +

Question: What about the “growth of Trichoderma pseudokoningii” value ([2]; well 12, 0.02 ppm active) of the same compound?
Answer: +
